Measured values taken from patent US20170050980A1, “OXADIAZINE COMPOUNDS AND METHODS OF USE THEREOF” (FORUM Pharmaceuticals Inc., priority 2015, published 2017).

system: Aβ42; assay: In vitro cell screening assay; quantification of Aβ (1-42) peptide by sandwich ELISA; assay type: cell-based; settings: Human neuroglioma H4 cells stably expressing human wild type APP751; compounds 0.003-10 μM, incubated overnight (16-18 h); Aβ42 in supernatant by sandwich ELISA; normalized to DMSO and DAPT; read-out: Aβ42 H4 Prot Fre IC50
Outline: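 Stable H4 neuroglioma line expressing human wild-type APP751; compounds 0.003-10 μM (0.33% DMSO final) added in Pro293 medium 6 h after plating, incubated overnight (16-18 h) at 37 °C. Secreted Aβ42 measured in supernatant by C-terminal-capture sandwich ELISA with 4G8-HRP detection; IC50 by sigmoidal fit, normalized to DMSO and DAPT.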

SMILES	IC50 [µM]
COc1nc(C2=NOC(C)C(c3cn(C)c4ncc(Cl)cc34)N2)ccc1-n1cnc(C)c1 (single isomer, unassigned; (-)) [Example 54A, (−)-5-(5-chloro-1-methyl-1H-pyrrolo [2,3-b]pyridin-3-yl)-3-(6-methoxy-5-(4-methyl-1H-imidazol-1-yl)pyridin-2-yl)-6-methyl-5,6-dihydro-4H-1,2,4-oxadiazine]	0.19
COc1nc(C2=NOC(C)C(c3cn(C)c4ncc(Cl)cc34)N2)ccc1-n1cnc(C)c1 (single isomer, unassigned; (-)) [Example 54C, (−)-5-(5-chloro-1-methyl-1H-pyrrolo [2,3-b]pyridin-3-yl)-3-(6-methoxy-5-(4-methyl-1H-imidazol-1-yl)pyridin-2-yl)-6-methyl-5,6-dihydro-4H-1,2,4-oxadiazine]	0.464
COc1nc(C2=NOC(C)C(c3ccc(Cl)c(C(F)F)c3)N2)ccc1-n1cnc(C)c1 (single isomer, unassigned; (-)) [Example 55B, (−)-5-(4-chloro-3-(difluoromethyl)phenyl)-3-(6-methoxy-5-(4-methyl-1H-imidazol-1-yl)pyridin-2-yl)-6-methyl-5,6-dihydro-4H-1,2,4-oxadiazine]	0.352
COc1nc(C2=NOC(C)C(c3cn(C)c4ncc(C5CC5)cc34)N2)ccc1-n1cnc(C)c1 (single isomer, unassigned; (-)) [Example 56B, (−)-5-(5-cyclopropyl-1-methyl-1H-pyrrolo [2,3-b]pyridin-3-yl)-3-(6-methoxy-5-(4-methyl-1H-imidazol-1-yl)pyridin-2-yl)-6-methyl-5,6-dihydro-4H-1,2,4-oxadiazine]	0.013
COc1nc(C2=NOC(C)C(c3cn(C)c4ncc(C5CC5)cc34)N2)ccc1-n1cnc(C)c1 (single isomer, unassigned; (-)) [Example 56C, (−)-5-(5-cyclopropyl-1-methyl-1H-pyrrolo [2,3-b]pyridin-3-yl)-3-(6-methoxy-5-(4-methyl-1H-imidazol-1-yl)pyridin-2-yl)-6-methyl-5,6-dihydro-4H-1,2,4-oxadiazine]	0.221
COc1nc(C2=NOC(C3CC3)C(c3cc(F)cc(F)c3)N2)ccc1-n1cnc(C)c1 (single isomer, unassigned; (-)) [Example 59B, (−)-6-cyclopropyl-5-(3,5-difluorophenyl)-3-(6-methoxy-5-(4-methyl-1H-imidazol-1-yl)pyridin-2-yl)-5,6-dihydro-4H-1,2,4-oxadiazine]	0.854
COc1nc(C2=NOC(C3CC3)C(c3cn(C)c4ncc(F)c(F)c34)N2)ccc1-n1cnc(C)c1 (single isomer, unassigned; (-)) [Example 60B, (−)-6-cyclopropyl-5-(4,5-difluoro-1-methyl-1H-pyrrolo [2,3-b]pyridin-3-yl)-3-(6-methoxy-5-(4-methyl-1H-imidazol-1-yl)pyridin-2-yl)-5,6-dihydro-4H-1,2,4-oxadiazine]	0.0427
COc1nc(C2=NOC(C3CC3)C(c3cc4ccccc4o3)N2)ccc1-n1cnc(C)c1 (single isomer, unassigned; (-)) [Example 61B, (−)-5-(benzofuran-2-yl)-6-cyclopropyl-3-(6-methoxy-5-(4-methyl-1H-imidazol-1-yl)pyridin-2-yl)-5,6-dihydro-4H-1,2,4-oxadiazine]	0.598
COc1nc(C2=NOC(C)C(c3cn(C)c4ncc(Cl)c(F)c34)N2)ccc1-n1cnc(C)c1 (single isomer, unassigned; (-)) [Example 62B, (−)-5-(5-chloro-4-fluoro-1-methyl-1H-pyrrolo [2,3-b]pyridin-3-yl)-3-(6-methoxy-5-(4-methyl-1H-imidazol-1-yl)pyridin-2-yl)-6-methyl-5,6-dihydro-4H-1,2,4-oxadiazine]	0.484
COc1nc(C2=NOC(C3CC3)C(c3cn(C)c4nccc(F)c34)N2)ccc1-n1cnc(C)c1 (single isomer, unassigned; (-)) [Example 63B, (−)-6-cyclopropyl-5-(4-fluoro-1-methyl-1H-pyrrolo [2,3-b]pyridin-3-yl)-3-(6-methoxy-5-(4-methyl-1H-imidazol-1-yl)pyridin-2-yl)-5,6-dihydro-4H-1,2,4-oxadiazine]	0.105
COc1nc(C2=NOC(C)C(c3ccc(Cl)c(F)c3)N2)ccc1-n1cnc(C)c1 (stereo not drawn) [40-IA or 40-IIA, (−)-(cis)-5-(4-chloro-3-fluorophenyl)-3-(6-methoxy-5-(4-methyl-1H-imidazol-1-yl)pyridin-2-yl)-6-methyl-5,6-dihydro-4H-1,2,4-oxadiazine]	1.84
COc1nc(C2=NOC(C)C(c3ccc(Cl)c(F)c3)N2)ccc1-n1cnc(C)c1 (stereo not drawn) [40-IB or 40-IIB, (+)-(cis)-5-(4-chloro-3-fluorophenyl)-3-(6-methoxy-5-(4-methyl-1H-imidazol-1-yl)pyridin-2-yl)-6-methyl-5,6-dihydro-4H-1,2,4-oxadiazine]	0.0075
COc1nc(C2=NOC(C3CC3)C(c3cn(C)c4ncc(Cl)cc34)N2)ccc1-n1cnc(C)c1 (stereo not drawn) [57A or 58A, (+)-(cis)-5-(5-chloro-1-methyl-1H-pyrrolo[2,3-b]pyridin-3-yl)-6-cyclopropyl-3-(6-methoxy-5-(4-methyl-1H-imidazol-1-yl)pyridin-2-yl)-5,6-dihydro-4H-1,2,4-oxadiazine]	1.24
COc1nc(C2=NOC(C3CC3)C(c3cn(C)c4ncc(Cl)cc34)N2)ccc1-n1cnc(C)c1 (stereo not drawn) [57B or 58B, (−)-(cis)-5-(5-chloro-1-methyl-1H-pyrrolo[2,3-b]pyridin-3-yl)-6-cyclopropyl-3-(6-methoxy-5-(4-methyl-1H-imidazol-1-yl)pyridin-2-yl)-5,6-dihydro-4H-1,2,4-oxadiazine]	0.0067
COc1nc(C2=NO[C@@H](C)[C@@H](c3ccc(Cl)cc3)N2)ccc1-n1cnc(C)c1 [Example 18A, (−)-(5R,6S)-5-(4-chlorophenyl)-3-[6-methoxy-5-(4-methyl-1H-imidazol-1-yl)pyridin-2-yl]-6-methyl-5,6-dihydro-4H-1,2,4-oxadiazine]	2.22
COc1nc(C2=NO[C@H](C)[C@H](c3ccc(Cl)cc3)N2)ccc1-n1cnc(C)c1 [Example 18B, (+)-(5S,6R)-5-(4-chlorophenyl)-3-[6-methoxy-5-(4-methyl-1H-imidazol-1-yl)pyridin-2-yl]-6-methyl-5,6-dihydro-4H-1,2,4-oxadiazine]	0.019
COc1nc(C2=NOC(C)C(c3ccc(Cl)c(Cl)c3)N2)ccc1-n1cnc(C)c1 (stereo not drawn) [Example 19A, (−)-cis-5-(3,4-dichlorophenyl)-3-[6-methoxy-5-(4-methyl-1H-imidazol-1-yl)pyridin-2-yl]-6-methyl-5,6-dihydro-4H-1,2,4-oxadiazine]	0.91
COc1nc(C2=NOC(C)C(c3ccc(Cl)c(Cl)c3)N2)ccc1-n1cnc(C)c1 (stereo not drawn) [Example 19B, (+)-cis-5-(3,4-dichlorophenyl)-3-[6-methoxy-5-(4-methyl-1H-imidazol-1-yl)pyridin-2-yl]-6-methyl-5,6-dihydro-4H-1,2,4-oxadiazine]	0.006
COc1nc(C2=NOC(C3CC3)C(c3ccc(Cl)cc3)N2)ccc1-n1cnc(C)c1 (stereo not drawn) [Example 20A, (−)-cis-5-(4-chlorophenyl)-6-cyclopropyl-3-[6-methoxy-5-(4-methyl-1H-imidazol-1-yl)pyridin-2-yl]-5,6-dihydro-4H-1,2,4-oxadiazine]	1.78
